Reference: US8937077B2, “Bicyclic diamines as janus kinase inhibitors” (Merck Sharp & Dohme Corp., priority 2010, dated 2015)

Each compound was assayed against T1, Jak1 (Homo sapiens, UniProt P23458) (assay: Jak Biochemical HTRF Assay (Jak1)). Conditions: IC50 class, recombinant GST-tagged catalytic domain, read-out: Jak1 activity.
T1 construct: using a recombinant purified GST-tagged catalytic domain for each enzyme; GST; purchased Invitrogen M4290
From the text: Compounds of formula I can be prepared according to the general procedures described in the Schemes and Examples herein, using appropriate materials. Representative compounds of the present invention are exemplified herein below. The compounds exemplified are not, however, to be construed as limiting the scope of the invention in any manner. The examples further illustrate details for the preparation of the compounds of the present invention. Those skilled in the art will readily understand that known variations of protecting groups, of reagents, as well as of the conditions and processes of the following preparative procedures, can be used to prepare these compounds. It is also understood that whenever a chemical reagent is not commercially available, such a chemical reagent can be readily prepared by those skilled in the art by either following or adapting known methods described in the literature or described herein. Chiral analogs were prepared via incorporation of chiral reagents or obtained after chiral chromatography separation of a racemically generated analog. All temperatures are degrees Celsius unless otherwise noted. Mass spectra (MS) were measured either by electrospray ion-mass spectroscopy (ESMS) or by atmospheric pressure chemical ionization mass spectroscopy (APCI). Jak1 data were obtained using the in vitro assay described below.
Jak Biochemical HTRF Assay Protocol
The ability of compounds to inhibit the activity of Jak1, Jak2, Jak3, and Tyk2 was measured using a recombinant purified GST-tagged catalytic domain for each enzyme (Invitrogen Jak1 #M4290, […]) in an HTRF format biochemical assay. The reactions employed a common peptide substrate, LCB-EQEDEPEGDYFEWLW-NH2 (in-house). The basic assay protocol is as follows: First, […] of diluted compounds in DMSO were dispensed into the wells of a dry 384-well Black plate (Greiner #781076) using a Labcyte Echo 555 acoustic dispenser. Subsequent reagent additions employed an Agilent Bravo. Next, 18 μL, of 1.11X enzyme and 1.11X substrate in 1X assay buffer (Invitrogen kinase buffer #PV3189, 2 mM DTT, 0.05% BSA) were added to the wells and shaken and then preincubated for 30 minutes at room temperature to allow compound binding to equilibrate. After equilibration, 2 μL of 10X ATP in 1X assay buffer was added to initiate the kinase reaction and the plates were shaken and then incubated at room temperature for 120 minutes. At the end of the incubation, 20 μL of 2X stop buffer (streptavidin-Dylight (Thermo #21845), Eu-tagged pY20 antibody (Perkin Elmer #AD0067), EDTA, HEPES, and Triton) was added to quench the reaction. Plates were shaken and centrifuged and then incubated 60 minutes at room temperature and then read on a Perkin Elmer Envision (λex=337 nm, λem=665 and 615 nm, TRF delay time=20 μs). HTRF signal=10,000*665 nm reading/615 nm reading. After normalization to untreated controls, the percent inhibition of the HTRF signal at each compound concentration was calculated. The plot of percent inhibition versus the log of compound concentration was fit with a 4-parameter dose response equation to calculate IC50 values.

T1 sequence (P23458 875-1153 limits assumed): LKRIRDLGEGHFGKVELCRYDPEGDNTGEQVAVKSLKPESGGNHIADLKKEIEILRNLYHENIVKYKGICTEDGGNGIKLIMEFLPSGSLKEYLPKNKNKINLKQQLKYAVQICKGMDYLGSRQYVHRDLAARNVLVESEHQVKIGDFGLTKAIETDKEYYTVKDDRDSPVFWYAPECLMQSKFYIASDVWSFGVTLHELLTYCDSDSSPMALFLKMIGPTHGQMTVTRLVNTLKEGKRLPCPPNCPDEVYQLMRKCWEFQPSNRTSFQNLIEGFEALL

Row | Compound | IC50 [nM]
1 | O=C(OCc1cnccn1)N1CCCC2C1CCN2c1ncnc2[nH]ccc12 (stereo not shown) [Example 3-18, pyrazin-2-ylmethyl 1-(7H-pyrrolo[2,3-d]pyrimidin-4-yl)octahydro-4H-pyrrolo[3,2-b]-pyridine-4-carboxylate] | 10 to 100
2 | O=C(OCc1cccnc1)N1CCC[C@@H]2[C@H]1CCN2c1ncnc2[nH]ccc12 [Example 3-19, pyridin-3-ylmethyl (3aR,7aR)-1-(7H-pyrrolo[2,3-d]pyrimidin-4-yl)octahydro-4H-pyrrolo[3,2-b]pyridine-4-carboxylate] | 100 to 1000
3 | C[C@H](OC(=O)N1CCCC2C1CCN2c1ncnc2[nH]ccc12)c1ccccc1 (stereo partly drawn) [Example 3-24, (1S)-1-phenylethyl 1-(7H-pyrrolo[2,3-d]pyrimidin-4-yl)octahydro-4H-pyrrolo[3,2-b]-pyridine-4-carboxylate] | 10 to 100
4 | O=C(OCCN1CCS(=O)(=O)CC1)N1CCC[C@@H]2[C@H]1CCN2c1ncnc2[nH]ccc12 [Example 3-27, 2-(1,1-dioxidothiomorpholin-4-yl)ethyl (3 aR,7 aR)-1-(7H-pyrrolo[2,3-d]pyrimidin-4-yl)octahydro-4H-pyrrolo[3,2-b]pyridine-4-carboxylate] | 100 to 1000
5 | COC(=O)C1CC1CCOC(=O)N1CCC[C@@H]2[C@H]1CCN2c1ncnc2[nH]ccc12 (stereo partly drawn) [Example 3-29, 2-[2-(methoxycarbonyl)cyclopropyl]ethyl (3aR,7aR)-1-(7H-pyrrolo[2,3-d]pyrimidin-4-yl)octahydro-4H-pyrrolo[3,2-b]pyridine-4-carboxylate] | 10 to 100
6 | O=C(OCC1CC1)N1CCC[C@@H]2[C@H]1CCN2c1ncnc2[nH]ccc12 [Example 3-31, cyclopropylmethyl (3aR,7aR)-1-(7H-pyrrolo[2,3-d]pyrimidin-4-yl)octahydro-4H-pyrrolo[3,2-b]pyridine-4-carboxylate] | 10 to 100
7 | O=C(OC1CCCCC1)N1CCC[C@@H]2[C@H]1CCN2c1ncnc2[nH]ccc12 [Example 3-32, cyclohexyl (3aR,7aR)-1-(7H-pyrrolo[2,3-d]pyrimidin-4-yl)octahydro-4H-pyrrolo[3,2-b]pyridine-4-carboxylate] | 10 to 100
8 | O=C(OCc1ccccc1F)N1CCC[C@@H]2[C@H]1CCN2c1ncnc2[nH]ccc12 [Example 3-33, 2-fluorobenzyl (3aR,7aR)-1-(7H-pyrrolo[2,3-d]pyrimidin-4-yl)octahydro-4H-pyrrolo[3,2-b]pyridine-4-carboxylate] | 1 to 10
9 | O=C1CCCN1CCOC(=O)N1CCC[C@@H]2[C@H]1CCN2c1ncnc2[nH]ccc12 [Example 3-36, 2-(2-oxopyrrolidin-1-yl)ethyl (3aR,7aR)-1-(7H-pyrrolo[2,3-d]pyrimidin-4-yl)octahydro-4H-pyrrolo[3,2-b]pyridine-4-carboxylate] | 100 to 1000
10 | O=C(OCCc1ccccn1)N1CCC[C@@H]2[C@H]1CCN2c1ncnc2[nH]ccc12 [Example 3-37, 2-pyridin-2-ylethyl (3aR,7 aR)-1-(7H-pyrrolo[2,3-d]pyrimidin-4-yl)octahydro-4H-pyrrolo[3,2-b]pyridine-4-carboxylate] | 10 to 100
11 | CN1CCN(CCOC(=O)N2CCC[C@@H]3[C@H]2CCN3c2ncnc3[nH]ccc23)CC1 [Example 3-41, 2-(4-methylpiperazin-1-yl)ethyl(3aR,7aR)-1-(7H-pyrrolo[2,3-d]pyrimidin-4-yl)octahydro-4H-pyrrolo[3,2-b]pyridine-4-carboxylate] | 100 to 1000
12 | CN1CCC(COC(=O)N2CCC[C@@H]3[C@H]2CCN3c2ncnc3[nH]ccc23)CC1 [Example 3-42, (1-methylpiperidin-4-yl)methyl (3 aR,7 aR)-1-(7H-pyrrolo[2,3-d]pyrimidin-4-yl)octahydro-4H-pyrrolo[3,2-b]pyridine-4-carboxylate] | 100 to 1000
13 | O=C(OCCn1ccc2ccccc21)N1CCC[C@@H]2[C@H]1CCN2c1ncnc2[nH]ccc12 [Example 3-45, 2-(1H-indol-1-yl)ethyl (3aR,7aR)-1-(7H-pyrrolo[2,3-d]pyrimidin-4-yl)octahydro-4H-pyrrolo[3,2-b]pyridine-4-carboxylate] | 10 to 100
14 | O=C(OCC1CCCCC1)N1CCC[C@@H]2[C@H]1CCN2c1ncnc2[nH]ccc12 [Example 3-46, cyclohexylmethyl (3aR,7aR)-1-(7H-pyrrolo[2,3-d]pyrimidin-4-yl)octahydro-4H-pyrrolo[3,2-b]pyridine-4-carboxylate] | 10 to 100

The next lines start with the values.

Row | IC50 [nM] | Compound
15 | 10 to 100 | Cc1ccc(COC(=O)N2CCCC3C2CCN3c2ncnc3[nH]ccc23)cc1 (stereo not shown) [Example 3-17, 4-methylbenzyl 1-(7H-pyrrolo[2,3-d]pyrimidin-4-yl)octahydro-4H-pyrrolo[3,2-b]-pyridine-4-carboxylate]
16 | 100 to 1000 | COC(=O)c1cccc(COC(=O)N2CCC[C@@H]3[C@H]2CCN3c2ncnc3[nH]ccc23)c1 [Example 3-20, 3-(methoxycarbonyl)benzyl (3aR,7aR)-1-(7H-pyrrolo[2,3-d]pyrimidin-4-yl)octahydro-4H-pyrrolo[3,2-b]pyridine-4-carboxylate]
17 | 10 to 100 | COC(=O)c1ccc(CCOC(=O)N2CCC[C@@H]3[C@H]2CCN3c2ncnc3[nH]ccc23)cc1 [Example 3-21, 2-[4-(methoxycarbonyl)phenyl]ethyl (3aR,7aR)-1-(7H-pyrrolo[2,3-d]pyrimidin-4-yl)octahydro-4H-pyrrolo[3,2-b]pyridine-4-carboxylate]
18 | 10 to 100 | COC(=O)c1ccc(CCCOC(=O)N2CCC[C@@H]3[C@H]2CCN3c2ncnc3[nH]ccc23)cc1 [Example 3-22, 3-[4-(methoxycarbonyl)phenyl]propyl (3aR,7aR)-1-(7H-pyrrolo[2,3-d]pyrimidin-4-yl)octahydro-4H-pyrrolo[3,2-b]pyridine-4-carboxylate]
19 | 10 to 100 | C[C@@H](OC(=O)N1CCCC2C1CCN2c1ncnc2[nH]ccc12)c1ccccc1 (stereo partly drawn) [Example 3-23, (1R)-1-phenylethyl 1-(7H-pyrrolo[2,3-d]pyrimidin-4-yl)octahydro-4H-pyrrolo[3,2-b]-pyridine-4-carboxylate]
20 | 1 to 10 | COC(=O)c1ccc(COC(=O)N2CCCC3C2CCN3c2ncnc3[nH]ccc23)cc1 (stereo not shown) [Example 3-25, 4-(methoxycarbonyl)benzyl 1-(7H-pyrrolo[2,3-d]pyrimidin-4-yl)octahydro-4H-pyrrolo[3,2-b]pyridine-4-carboxylate]
21 | 10 to 100 | COC(=O)c1cccc(OC(=O)N2CCCC3C2CCN3c2ncnc3[nH]ccc23)c1 (stereo not shown) [Example 3-26, 3-(methoxyeaxbonyl)phenyl 1-(7H-pyrrolo[2,3-d]pyrimidin-4-yl)octahydro-4H-pyrrolo[3,2-b]pyridine-4-carboxylate]
22 | 10 to 100 | O=C(OCCc1ccc2c(c1)CCO2)N1CCC[C@@H]2[C@H]1CCN2c1ncnc2[nH]ccc12 [Example 3-28, 2-(2,3-dihydro-1-benzofuran-5-yl)ethyl (3aR,7aR)-1-(7H-pyrrolo[2,3-d]pyrimidin-4-yl)octahydro-4H-pyrrolo[3,2-b]pyridine-4-carboxylate]
23 | 100 to 1000 | O=C(OCCc1cccc2ccccc12)N1CCC[C@@H]2[C@H]1CCN2c1ncnc2[nH]ccc12 [Example 3-34, 2-naphthalen-1-ylethyl (3aR,7aR)-1-(7H-pyrrolo[2,3-d]pyrimidin-4-yl)octahydro-4H-pyrrolo[3,2-b]pyridine-4-carboxylate]
24 | 10 to 100 | O=C(OCCN1CCOCC1)N1CCC[C@@H]2[C@H]1CCN2c1ncnc2[nH]ccc12 [Example 3-39, 2-morpholin-4-ylethyl (3aR,7aR)-1-(7H-pyrrolo[2,3-d]pyrimidin-4-yl)octahydro-4H-pyrrolo[3,2-b]pyridine-4-carboxylate]
25 | 100 to 1000 | O=C(OCCN1CCCC1)N1CCC[C@@H]2[C@H]1CCN2c1ncnc2[nH]ccc12 [Example 3-40, 2-pyrrolidin-1-ylethyl (3aR,7aR)-1-(7H-pyrrolo[2,3-d]pyrimidin-4-yl)octahydro-4H-pyrrolo[3,2-b]pyridine-4-carboxylate]
26 | 10 to 100 | O=C(OCCc1cc(F)cc(F)c1)N1CCC[C@@H]2[C@H]1CCN2c1ncnc2[nH]ccc12 [Example 3-44, 2-(3,5-difluorophenyl)ethyl (3aR,7aR)-1-(7H-pyrrolo[2,3-d]pyrimidin-4-yl)octahydro-4H-pyrrolo[3,2-b]pyridine-4-carboxylate]

Same assay, conditions: recombinant GST-tagged catalytic domain, 31.8 μM ATP, read-out: Representative IC50 values

Row | IC50 [nM] | Compound
27 | 11 | O=C(OC1CCCCC1)N1CCC[C@@H]2[C@H]1CCN2c1ncnc2[nH]ccc12 [Example 3-32, cyclohexyl (3aR,7aR)-1-(7H-pyrrolo[2,3-d]pyrimidin-4-yl)octahydro-4H-pyrrolo[3,2-b]pyridine-4-carboxylate]
28 | 131 | CN1CCN(CCOC(=O)N2CCC[C@@H]3[C@H]2CCN3c2ncnc3[nH]ccc23)CC1 [Example 3-41, 2-(4-methylpiperazin-1-yl)ethyl(3aR,7aR)-1-(7H-pyrrolo[2,3-d]pyrimidin-4-yl)octahydro-4H-pyrrolo[3,2-b]pyridine-4-carboxylate]
